According to patent US8551405B2, “Electrophoretic interactive spectral methods and devices for the detection and/or characterization of biological particles” (The University of North Carolina at Chapel Hill, priority 2004, dated 2013):
“And” between values parts separate entries of the source, which are not always exact repeats. Identical values can stand only once. Like-named read-outs stand apart in the source and are kept apart here.

Legend:
activated platelets = assay: EQELS binding of proteins to thrombin-activated platelets; set-up: species or system human
Experimental: (§1) Fresh gel-filtered platelets were used in all experiments. Blood from healthy donors was collected in acid-citrate-dextrose and prostacyclin (5 μg/mL, PGI2, Sigma Chemical Co., St. Louis, Mo.). Platelet-rich-plasma was obtained by centrifugation of the anticoagulated blood at 150 g for 15 minutes. […] Gel-filtered platelets were obtained from the application of washed platelets to a Sepharose CL-2B column (Pharamica Inc., Uppsala, Sweden) equilibrated with calcium-free albumin-free Tyrode's buffer. Platelets for light scattering experiments were suspended in buffer containing 20 mM NaCl, 265 mM sucrose, 2 mM HEPES, pH 7.4 and activated with human α-thrombin (0.2 NIH units/mL). See Li, X., Gabriel, D. A. The physical exchange of factor VIII (FVIII) between von Willebrand factor and activated platelets and the effect of the FVIII B-domain on platelet binding (1997) Biochem. J. 36, 10760-10767. […] EQELS spectra of the gel filtered platelets gave a single homogeneous mobility indicating the lack of microparticles. No change is observed in the platelet mobility spectrum on the addition of rFVIIa over the concentration range where rFVIIa would be expected to bind to tissue factor if it was present, indicating an absence of TF in the preparation.
Electrophoretic quasi-elastic light scattering offers the ability to monitor changes in the surface of blood cells resulting from cell activation and ligand binding. Gabriel, D. A., Reece, N., Witte, J., and Muga, K. Electrophoretic light scattering studies on the interaction of fibrinogen with resting and activated human platelets (1993) Blood Coagul. Fibrinolysis 4, 397-403; Johnson, C., and Gabriel, D. A. (1995) Laser Light Scattering, Dover, N.Y. The electrophoretic mobility of activated platelets changes when exposed to a known ligand and that the mobility change is the result of ligand binding. […] Under these experimental conditions, resting gel-filtered platelets have an electrophoretic mobility of −0.9 (μ-cm)/(volt-sec) and activated platelets have a mobility of −0.65(μ-cm)/(volt-sec). Loading the platelet surface with a ligand, such as a FIX or FVIII, changes the platelet electrophoretic mobility. While the absolute mobility varies slightly from donor to donor, there is minimal variation in a given donor. The dependence of the change in the platelet electrophoretic mobility on the addition of FIX permits calculation of the binding constant for FIX to the activated platelet. It is not the magnitude of the change in the platelet electrophoretic mobility, μ, that determines the binding constant, but how the change in μ depends on the concentration of the ligand FIX. The effect of ligand binding on the platelet mobility varies with the ligand, and is dependent on the extent of ligand binding, the extent of surface modification caused by ligand binding, and on the net charge of the ligand itself.
EQELS measurements were made on a multi-angle quasi-elastic light scattering spectrometer (DELSA 440, Coulter Electronics, Inc., Hialeah, Fla.). See Li, X., Gabriel, D. A. Biochem. J. 36, 10760-10767 (1997); Johnson, C., and Gabriel, D. A. (1995) Laser Light Scattering, Dover, N.Y.
Activated platelets and activated FVIII were prepared by activation with 0.2 NIH U/mL human α-thrombin for 5 minutes. After activation, residual thrombin was inactivated by addition of 2.5 μM phenylalanyl prolinyl arginine chloromethyl ketone (PPACK, Calbiochem, La Jolla, Calif.). FIX, FIXa, FVIIIa, and rFVIIa were incubated with platelets for 10 minutes before EQELS measurements.
The binding coefficient (Kd) of the proteins to platelets was determined by fitting the data from the binding experiment to:
[formula] where, μ is the electrophoretic mobility, μ0 is the mobility in the absence of added protein, Δμ is the calculated maximal change in mobility at the saturating concentration of protein. This model assumes one class of binding sites for the specific protein ligand on the platelets. […]

resting platelets = assay: EQELS binding to resting platelets; set-up: species or system human; conditions: data not shown
Experimental: as §1, with “preparation. […]” for “preparation.”

[1] = test system: activated platelet surface; conditions: literature, read-out: Kd, binding to activated platelet surface, cited from earlier work
[2] = molecular target: T1, platelet-bound zymogen FIX (Homo sapiens, UniProt P00740); assay: EQELS time and concentration dependence of zymogen FIX activation by rFVIIa on activated platelets; format: cell-based; conditions: FIX 10 nM
T1 construct: made in house
T1 sequence (P00740 29-461 limits assumed): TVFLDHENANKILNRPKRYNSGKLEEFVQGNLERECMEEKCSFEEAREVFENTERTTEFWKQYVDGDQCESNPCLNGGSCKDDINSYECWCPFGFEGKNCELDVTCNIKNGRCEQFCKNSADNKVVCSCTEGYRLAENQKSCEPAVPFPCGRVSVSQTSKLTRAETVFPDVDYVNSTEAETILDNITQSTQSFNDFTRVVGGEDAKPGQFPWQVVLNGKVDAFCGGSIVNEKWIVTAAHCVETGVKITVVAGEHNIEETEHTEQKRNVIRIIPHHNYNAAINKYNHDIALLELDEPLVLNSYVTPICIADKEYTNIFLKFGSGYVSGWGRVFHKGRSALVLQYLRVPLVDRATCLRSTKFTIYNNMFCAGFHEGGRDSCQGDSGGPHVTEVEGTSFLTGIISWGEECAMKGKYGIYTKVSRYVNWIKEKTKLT
Experimental: FIG. 11A is a graph of the time and concentration dependence of rFVIIa on the activation of zymogen FIX. Platelets were activated with thrombin followed by inhibition of thrombin with PPACK. The activated platelets were then loaded with rFVIIa (0.075 nM, 1 nM, or 10 nM) and monitored as a function of time. The mobility at the initial time (zero) is the mobility for platelets loaded with zymogen FIX. […] Changes in the platelet mobility result from FIX activation.
Zymogen FIX at varying concentrations was added to the thrombin activated platelets that in some experiments included FVIIIa followed by a 10 minute incubation period. After this incubation period, rFVIIa was added to activated platelets coated with zymogen FIX. The EQELS spectrum was then obtained.
A decrease in the […] of FIX was used to detect activation of zymogen FIX by rFVIIa.

FIX = molecular target: T2, FIX (Homo sapiens, UniProt P00740); assay: Functional (chromogenic) assay for activation of FIX on activated platelets; format: biochemical
T2 construct: made in house
T2 sequence (P00740 29-461 limits assumed): as above
Experimental: FIG. 12 is a graph illustrating the amount of FIX activated as a function of time and at different concentrations of rFVIIa (between 0 nM and 49 nM) for a chromogenic assay to show activation of FIX by rFVIIa in the absence of TF.
All assays were run in Tyrodes buffer with 2 mM CaCl2. Platelets were activated with 0.2 NIH units/ml of human α-thrombin for 10 minutes at 37° C. FVIII at 5 units/ml were included with the platelets and thrombin. Thrombin was neutralized with hirudin from a medium titrated against an α-thrombin standard. FVIIa at varying concentrations was added to the platelets for 10 minutes. Plasma concentrations of FIX at 80 nM were added and incubated for varied times. FIXa was assayed in a two stage assay. Platelets with activated FIX were incubated with plasma concentrations of FX for 5 minutes, then the amount of FXa was measured by adding plasma concentrations of prothrombin along with a […] (0.5 mM Perfachrome Th). […] Thrombin generation was measured as the change in the absorbance as the p-nitroanilide substrate was cleaved as a function of time. As expected, substrate cleavage fit a second order pattern and the rate of thrombin generation was determined from the first derivative of the absorbance versus time data.

[3] = rFVIIa concentration after therapeutic infusion; format: in vivo; conditions: therapeutic infusion for a bleeding diathesis, estimated
[4] = 4 mM Ca++, 3 nM FVIIIa, read-out: Binding Coefficient (Kd), interaction with activated platelets
[5] = 4 mM Ca++, No FVIIIa, read-out: Binding Coefficient (Kd), interaction with activated platelets

With Activated coagulation factor IX [FIXa] the Kd (activated platelets; [4]) was 0.57 nM, the Kd (activated platelets; [5]) was 1.9 nM and the Kd (activated platelets; 4 mM calcium, 3 nM rFVIIIa, read-out: binding constant (Kd) to activated platelets) was 0.569 nM and 0.6 nM. For the same substance, the Kd (activated platelets; 4 mM calcium, no rFVIIIa, read-out: binding constant (Kd) to activated platelets) was 1.9 nM and 2 nM, the “binding to activated platelets (change in platelet electrophoretic mobility)” value (activated platelets; absence of calcium) was “no binding” and the “binding to resting platelets” value (resting platelets) was “do not bind”. For the same substance, the Kd ([1]; in the presence of rFVIIIa) was 0.6 nM and the Kd ([1]; no rFVIIIa) was 2.5 nM.

For Coagulation factor IX [FIX], the Kd (activated platelets; 10 nM rFVIIa, 4 mM calcium, 3 nM rFVIIIa, read-out: binding coefficient (Kd) for zymogen FIX to activated platelets in presence of rFVIIa) was 0.84 nM, the Kd (activated platelets; 10 nM rFVIIa, 4 mM calcium, no rFVIIIa, 10 min incubation, read-out: binding coefficient (Kd) for zymogen FIX to activated platelets in presence of rFVIIa) was 1.62 nM and 1.6 nM and the Kd (activated platelets; [4]) was 5.8 nM. For the same substance, the Kd (activated platelets; [5]) was 7.9 nM, the Kd (activated platelets; FIX + FVIIa (10 nM), 4 mM Ca++, No FVIIIa, read-out: Binding Coefficient (Kd) for FIX in the presence of FVIIa, activated platelets) was 1.62 nM and the “binding to resting platelets” value (resting platelets) was “do not bind”.

In the case of “Recombinant activated coagulation factor Vila [rFVIIa]”, the “change in platelet mobility on addition of rFVIIa” value (activated platelets; concentration range where rFVIIa would be expected to bind tissue factor) is reported as “no change”, the “change in platelet surface charge” value (activated platelets; conditions identical to FIXa binding experiment) is reported as “does not change” and the “rFVIIa concentration at which it binds to platelets in the presence of FIX” value (activated platelets; in the presence of FIX) is reported as ≥ 10 nM. The “change in electrophoretic mobility of platelets on addition of rFVIIa” value (activated platelets; rFVIIa 0 to 40 nM) was “did not change”, the “binding of rFVIIa to activated platelets” value (activated platelets; rFVIIa at 10 nM) was “does not bind” and the “binding of rFVIIa to activated platelets” value (activated platelets; rFVIIa greater than 100 nM) was “can be detected”. The “direct binding of rFVIIa to activated platelet surface” value (activated platelets; rFVIIa less than 100 nM, even in the presence of calcium) was “no direct binding”, the “binding of rFVIIa to activated platelets” value (activated platelets; rFVIIa range of 0.75 to 10 nM) was “does not bind” and the Kd (activated platelets; very high rFVIIa concentrations, absence of calcium (unpublished data), read-out: Kd of rFVIIa binding to platelets) was 250 nM. For the same substance, the Kd (activated platelets; very high rFVIIa concentrations, presence of calcium (unpublished data), read-out: Kd of rFVIIa binding to platelets) was 123 nM, the “activation of zymogen FIX by rFVIIa (EQELS)” value ([2]; 0.075 nM rFVIIa, approximately 30 minutes) was “minimal activation” and the “activation of zymogen FIX by rFVIIa (EQELS)” value ([2]; 1 nM rFVIIa) was “further activation”. For the same substance, the “conversion of zymogen FIX to activated FIX by rFVIIa (EQELS)” value ([2]; 10 nM rFVIIa) was “still more rapid rate”, the “FXa and thrombin production” value (FIX; dependent on concentration of added rFVIIa, not shown in FIG. 12) was “produced” and the “activation of platelet-bound zymogen FIX (chromogenic assay)” value (FIX; rFVIIa 10, 20, 30, 40 nM, absence of TF) was “linear in time and directly proportional to the concentration of added rFVIIa”. The “concentration of rFVIIa after therapeutic infusion” value [3] was “approximately 30 nM”.
